Laboratory results from PubChem BioAssay (NCI).
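In this assay, cells in 96-well plates receive the compound at five concentrations for 48 hours. Endpoints are linearly interpolated between the surrounding concentrations. Here, GI50 denotes the concentration required for 50% inhibition of growth. TGI: total growth inhibition.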

How the values were obtained:
Assay in all cases: inhibition of tumour cell growth, NCI panel, 48 h
NCI-H522 lung = test system: NCI-H522 lung
A549 NSCLC = test system: A549 NSCLC
MDA-MB-231 breast = test system: MDA-MB-231 breast
SF-539 CNS = test system: SF-539 CNS
SW-620 colon = test system: SW-620 colon
OVCAR-8 ovarian = test system: OVCAR-8 ovarian
HCT-116 colon = test system: HCT-116 colon
OVCAR-5 ovarian = test system: OVCAR-5 ovarian
DU-145 prostate = test system: DU-145 prostate
MOLT-4 leukemia = test system: MOLT-4 leukemia

`Nc1ccc(Cc2ccc(N)c(C(=O)O)c2)cc1C(=O)O` showed a TGI (NCI-H522 lung) of over 100 µM, a TGI (A549 NSCLC) of over 100 µM and a TGI (MDA-MB-231 breast) of over 100 µM. It also gave a TGI (SF-539 CNS) of over 100 µM, a TGI (SW-620 colon) of over 100 µM and a TGI (OVCAR-8 ovarian) of over 100 µM. The TGI (HCT-116 colon) was over 100 µM and the TGI (OVCAR-5 ovarian) was over 100 µM.
`CC12OC(C(=O)C13CCC3)C1C(=O)c3c(O)ccc(O)c3C(=O)C12` (stereo unspecified) was tested, and the GI50 (NCI-H522 lung) was 2.95 µM, the TGI (NCI-H522 lung) was 10.2 µM and the GI50 (A549 NSCLC) was 5.79 µM. It also gave a TGI (A549 NSCLC) of 22.3 µM, a GI50 (DU-145 prostate) of 5.01 µM and a TGI (DU-145 prostate) of 19.5 µM. The GI50 (MDA-MB-231 breast) was 2.41 µM, the TGI (MDA-MB-231 breast) was 7.47 µM and the GI50 (SF-539 CNS) was 2.99 µM. It also gave a TGI (SF-539 CNS) of 15.8 µM, a GI50 (MOLT-4 leukemia) of 0.123 µM and a GI50 (SW-620 colon) of 1.39 µM. It also gave a TGI (SW-620 colon) of 3.88 µM, a GI50 (OVCAR-8 ovarian) of 7.04 µM and a TGI (OVCAR-8 ovarian) of 18.1 µM. The GI50 (HCT-116 colon) was 0.571 µM, the TGI (HCT-116 colon) was 1.78 µM and the GI50 (OVCAR-5 ovarian) was 2.14 µM. It also gave a TGI (OVCAR-5 ovarian) of 4.29 µM.
In the case of `CC(NC(=O)c1ccc(OP(=O)(OCc2ccc([N+](=O)[O-])o2)N(C)CCCCCl)cc1)c1ccc(OCC2CCCCC2)c(C(N)=O)c1` (stereo unspecified), the TGI (NCI-H522 lung) is reported as 6.44 µM, the TGI (A549 NSCLC) is reported as over 21.4 µM and the TGI (DU-145 prostate) is reported as over 29 µM. It also gave a TGI (MDA-MB-231 breast) of 9.66 µM, a TGI (SF-539 CNS) of 10.1 µM and a TGI (MOLT-4 leukemia) of 6.89 µM. The TGI (SW-620 colon) was over 43.1 µM, the TGI (OVCAR-8 ovarian) was over 74.4 µM and the TGI (HCT-116 colon) was 9.5 µM. The TGI (OVCAR-5 ovarian) was over 47.6 µM.
`COc1cc(/C=C2\CC3C4CC[C@H]5C[C@@H](O)CC[C@]5(C)C4CC[C@]3(C)\C2=N\O)cc(OC)c1OC` (stereo partly specified) showed a TGI (NCI-H522 lung) of 94.8 µM, a TGI (A549 NSCLC) of over 100 µM and a TGI (DU-145 prostate) of over 100 µM. The TGI (MDA-MB-231 breast) was 59.7 µM, the TGI (SF-539 CNS) was 34.1 µM and the TGI (MOLT-4 leukemia) was 37.5 µM. The TGI (SW-620 colon) was over 100 µM, the TGI (OVCAR-8 ovarian) was over 100 µM and the TGI (HCT-116 colon) was 21.4 µM. It also gave a TGI (OVCAR-5 ovarian) of over 100 µM.
For `COc1cc(S(=O)(=O)Nc2ccc(-c3csc(/N=C\c4cccc(Oc5ccccc5)c4)n3)cc2)ccc1Cl`, the TGI (NCI-H522 lung) was 66.6 µM, the TGI (A549 NSCLC) was over 100 µM and the TGI (DU-145 prostate) was 61.7 µM. It also gave a TGI (SF-539 CNS) of over 100 µM, a TGI (MOLT-4 leukemia) of over 100 µM and a TGI (SW-620 colon) of over 100 µM. It also gave a TGI (OVCAR-8 ovarian) of 61.9 µM, a TGI (HCT-116 colon) of 92.6 µM and a TGI (OVCAR-5 ovarian) of over 100 µM.
For `O=C(NN1CCCCC1)c1cc2cc(CCl)ccc2oc1=O`, the TGI (NCI-H522 lung) was 22.7 µM, the TGI (A549 NSCLC) was 48.5 µM and the TGI (DU-145 prostate) was over 100 µM. For the same compound, the TGI (MDA-MB-231 breast) was 38.6 µM, the TGI (SF-539 CNS) was over 100 µM and the TGI (MOLT-4 leukemia) was 65.5 µM. It also gave a TGI (SW-620 colon) of 60.7 µM, a TGI (OVCAR-8 ovarian) of 54.8 µM and a TGI (HCT-116 colon) of 38 µM. It also gave a TGI (OVCAR-5 ovarian) of 31.8 µM.
`Nc1csc(-c2scc3c2OCCO3)c1N` was tested, and the TGI (NCI-H522 lung) was 33.8 µM, the TGI (A549 NSCLC) was over 100 µM and the TGI (DU-145 prostate) was 53.8 µM. The TGI (MDA-MB-231 breast) was 41.4 µM, the TGI (SF-539 CNS) was 47.4 µM and the TGI (MOLT-4 leukemia) was over 100 µM. For the same compound, the TGI (SW-620 colon) was 87.9 µM, the TGI (OVCAR-8 ovarian) was 40.1 µM and the TGI (HCT-116 colon) was 46.4 µM. It also gave a TGI (OVCAR-5 ovarian) of 39.9 µM.
`C/C=C/C(O)P(=O)(OC)OC` (stereo unspecified) showed a TGI (NCI-H522 lung) of 0.664 µM, a TGI (A549 NSCLC) of 1.07 µM and a TGI (DU-145 prostate) of 1.49 µM. The TGI (MDA-MB-231 breast) was 1.57 µM, the TGI (SF-539 CNS) was 0.74 µM and the TGI (MOLT-4 leukemia) was 11.2 µM. The TGI (SW-620 colon) was 0.982 µM, the TGI (OVCAR-8 ovarian) was 1.78 µM and the TGI (HCT-116 colon) was 0.835 µM. For the same compound, the TGI (OVCAR-5 ovarian) was 1.22 µM.
`Cc1cc(=O)[nH]c(S(=O)(=O)NC(=O)Nc2cccc(Cl)c2)n1` showed a TGI (NCI-H522 lung) of over 100 µM, a TGI (A549 NSCLC) of over 100 µM and a TGI (DU-145 prostate) of over 100 µM. It also gave a TGI (MDA-MB-231 breast) of over 100 µM, a TGI (SF-539 CNS) of over 100 µM and a TGI (MOLT-4 leukemia) of over 100 µM. The TGI (SW-620 colon) was over 100 µM, the TGI (OVCAR-8 ovarian) was over 100 µM and the TGI (HCT-116 colon) was over 100 µM. The TGI (OVCAR-5 ovarian) was over 100 µM.
For `COc1cc2cc[n+](C)c(Cc3ccc(Oc4cc(Cc5c6cc(OC)c(OC)cc6cc[n+]5C)ccc4OC)cc3)c2cc1OC`, the TGI (NCI-H522 lung) was over 100 µM, the TGI (A549 NSCLC) was over 100 µM and the TGI (DU-145 prostate) was over 100 µM. The TGI (MDA-MB-231 breast) was over 100 µM, the TGI (SF-539 CNS) was over 100 µM and the TGI (MOLT-4 leukemia) was over 100 µM. For the same compound, the TGI (SW-620 colon) was over 100 µM, the TGI (OVCAR-8 ovarian) was over 100 µM and the TGI (HCT-116 colon) was over 100 µM. The TGI (OVCAR-5 ovarian) was over 100 µM.
`CN(CCCNC(=O)c1nn(-c2ccccc2)c2c1Cc1ccccc1-2)CCCNC(=O)c1nn(-c2ccccc2)c2c1Cc1ccccc1-2` was tested, and the TGI (NCI-H522 lung) was 2.63 µM, the TGI (A549 NSCLC) was 3.58 µM and the TGI (DU-145 prostate) was 3.21 µM. The TGI (MDA-MB-231 breast) was 2.99 µM, the TGI (SF-539 CNS) was 2.97 µM and the TGI (MOLT-4 leukemia) was 2.95 µM. The TGI (SW-620 colon) was 2.63 µM, the TGI (OVCAR-8 ovarian) was 3.39 µM and the TGI (HCT-116 colon) was 2.87 µM. It also gave a TGI (OVCAR-5 ovarian) of 3.26 µM.
For `Cc1c2ccccc2cc2cccc[n+]12`, the TGI (NCI-H522 lung) was 37.4 µM, the TGI (A549 NSCLC) was over 100 µM and the TGI (DU-145 prostate) was over 100 µM. It also gave a TGI (MDA-MB-231 breast) of over 100 µM, a TGI (SF-539 CNS) of over 100 µM and a TGI (MOLT-4 leukemia) of over 100 µM. For the same compound, the TGI (SW-620 colon) was over 100 µM, the TGI (OVCAR-8 ovarian) was over 100 µM and the TGI (HCT-116 colon) was over 100 µM. It also gave a TGI (OVCAR-5 ovarian) of over 100 µM.
`c1ccc(C[N+]23C(CC[C@H]2c2ccccc2)CC[C@H]3c2ccccc2)cc1` (stereo partly specified) gave a TGI (NCI-H522 lung) of over 100 µM, a TGI (A549 NSCLC) of over 100 µM and a TGI (DU-145 prostate) of over 100 µM. It also gave a TGI (MDA-MB-231 breast) of over 100 µM, a TGI (MOLT-4 leukemia) of over 100 µM and a TGI (SW-620 colon) of over 100 µM. For the same compound, the TGI (OVCAR-8 ovarian) was over 100 µM, the TGI (HCT-116 colon) was over 100 µM and the TGI (OVCAR-5 ovarian) was over 100 µM.
`COc1ccc2c3c([nH]c2c1)[C@H](C=C(C)C)N1C(=O)[C@@H]2CCCN2C(=O)[C@@H]1C3` gave a TGI (NCI-H522 lung) of over 100 µM, a TGI (A549 NSCLC) of over 100 µM and a TGI (DU-145 prostate) of over 100 µM. The TGI (MDA-MB-231 breast) was over 100 µM, the TGI (SF-539 CNS) was 83 µM and the TGI (MOLT-4 leukemia) was over 100 µM. For the same compound, the TGI (SW-620 colon) was over 100 µM, the TGI (OVCAR-8 ovarian) was over 100 µM and the TGI (HCT-116 colon) was over 100 µM. It also gave a TGI (OVCAR-5 ovarian) of over 100 µM.
With `CCCCSCCC(N)P(=O)(O)O` (stereo unspecified) the TGI (NCI-H522 lung) was over 100 µM, the TGI (A549 NSCLC) was over 100 µM and the TGI (DU-145 prostate) was over 100 µM. The TGI (MDA-MB-231 breast) was over 100 µM, the TGI (MOLT-4 leukemia) was over 100 µM and the TGI (SW-620 colon) was over 100 µM. It also gave a TGI (OVCAR-8 ovarian) of over 100 µM, a TGI (HCT-116 colon) of over 100 µM and a TGI (OVCAR-5 ovarian) of over 100 µM.
In the case of `C[C@]12O[C@@]3(C)O[C@@]3(C)[C@]3(C)O[C@]3(C)[C@@]1(C)O2`, the TGI (NCI-H522 lung) is reported as over 100 µM, the TGI (A549 NSCLC) is reported as over 100 µM and the TGI (DU-145 prostate) is reported as over 100 µM. The TGI (MDA-MB-231 breast) was over 100 µM, the TGI (MOLT-4 leukemia) was over 100 µM and the TGI (OVCAR-8 ovarian) was over 100 µM. It also gave a TGI (HCT-116 colon) of over 100 µM and a TGI (OVCAR-5 ovarian) of over 100 µM.
Work on `Fc1c(F)c(F)c(CSc2nc3ccccc3[nH]2)c(F)c1F` yielded a TGI (NCI-H522 lung) of over 100 µM, a TGI (A549 NSCLC) of over 100 µM and a TGI (DU-145 prostate) of over 100 µM. For the same compound, the TGI (MDA-MB-231 breast) was over 100 µM, the TGI (SF-539 CNS) was over 100 µM and the TGI (MOLT-4 leukemia) was over 100 µM. The TGI (SW-620 colon) was over 100 µM, the TGI (OVCAR-8 ovarian) was over 100 µM and the TGI (HCT-116 colon) was over 100 µM. The TGI (OVCAR-5 ovarian) was over 100 µM.
Compound `CC(CCCCNC(=O)OC(C)(C)C)NC(=O)NC(C)CCCCNC(=O)OC(C)(C)C` (stereo unspecified) has a TGI (NCI-H522 lung) of over 100 µM, a TGI (A549 NSCLC) of over 100 µM and a TGI (DU-145 prostate) of over 100 µM. The TGI (MDA-MB-231 breast) was over 100 µM, the TGI (MOLT-4 leukemia) was over 100 µM and the TGI (SW-620 colon) was over 100 µM. The TGI (OVCAR-8 ovarian) was over 100 µM, the TGI (HCT-116 colon) was over 100 µM and the TGI (OVCAR-5 ovarian) was over 100 µM.
